Measured values taken from publication PMC2798597 (Biochemical pharmacology, 2009).
Like-named read-outs stand apart in the source and are kept apart here.

How the values were obtained:
[1] = test system: MCF-7; experiment: MTT cytotoxicity / MDR reversal; assay type: cell-based, human; details: for fold-reversal: no FG020326 (reference)
[2] = test system: MCF-7/adr (ABCB1); experiment: MTT cytotoxicity / MDR reversal; assay type: cell-based, human; details: for IC50: Homo sapiens, NCI/ADR-RES, read-out: IC50 ± SD; for fold-reversal: MCF-7/adr cells, drug alone, no FG020326 (reference)
[3] = test system: SW1573; experiment: MTT cytotoxicity / MDR reversal; assay type: cell-based, human
[4] = test system: KBv200 (ABCB1); experiment: MTT cytotoxicity / MDR reversal; assay type: cell-based, human; details: for IC50: Homo sapiens, KBv200, read-out: IC50 ± SD; for fold-reversal: KBv200 cells, drug alone, no FG020326 (reference)
[5] = test system: SW1573/2R120 (LRP); experiment: MTT cytotoxicity / MDR reversal; assay type: cell-based, human
[6] = test system: KB; experiment: MTT cytotoxicity / MDR reversal; assay type: cell-based, human; details: for IC50: Homo sapiens, KB, read-out: IC50 ± SD; for fold-reversal: KB cells, drug alone, no FG020326 (reference)
[7] = test system: S1; experiment: MTT cytotoxicity / MDR reversal; assay type: cell-based
[8] = test system: S1-M1-80 (ABCG2); experiment: MTT cytotoxicity / MDR reversal; assay type: cell-based
[9] = Paclitaxel plasma levels / pharmacokinetics in mice; assay type: in vivo, NIH mice; details: for AUC(0-t): AUC0→ 12, paclitaxel 18 mg/kg i.v.
[10] = test system: KBv200 cell xenografts; experiment: MDR human carcinoma xenograft model; assay type: in vivo, athymic nude mice
[11] = test system: NIH3T3; experiment: MTT cytotoxicity / MDR reversal; assay type: cell-based, murine
[12] = test system: KB-CV60 (ABCC1); experiment: MTT cytotoxicity / MDR reversal; assay type: cell-based, human
[13] = test system: NIH3T3/MRP-4-2 (ABCC4); experiment: MTT cytotoxicity / MDR reversal; assay type: cell-based, murine
[14] = test system: KB-3-1; experiment: MTT cytotoxicity / MDR reversal; assay type: cell-based, human
[15] = Homo sapiens, SW1573, read-out: IC50 ± SD
[16] = Homo sapiens, MCF7, read-out: IC50 ± SD
[17] = paclitaxel experiment, paclitaxel 18 mg/kg i.p. q5d×3, FG020326 100 mg/kg p.o.
[18] = Mus musculus, NIH3T3, read-out: IC50 ± SD
[19] = VCR experiment, VCR 0.2 mg/kg i.p. q2d×6, FG020326 100 mg/kg p.o. q2d×6

Work on N.N.[Cl][Pt][Cl] [Cisplatin, cisplatin, reference compound] yielded an IC50 ([1]; read-out: IC50 ± SD, MCF-7 cells, drug alone, no FG020326) of 3550 ± 213 nM.

With COc1cccc2c1C(=O)c1c(O)c3c(c(O)c1C2=O)C[C@@](O)(C(=O)CO)C[C@@H]3O[C@H]1C[C@H](N)[C@H](O)[C@H](C)O1 [Doxorubicin, doxorubicin, reference compound] the IC50 [2] was 14300 ± 1420 nM, the fold-reversal [2] was “(1.0) fold” and the IC50 [3, 15] was 116 ± 24 nM. The fold-reversal ([3]; SW1573 cells, drug alone, no FG020326 (reference)) was “(1.0) fold”, the IC50 [4] was 979 ± 123 nM and the fold-reversal [4] was “(1.0) fold”. The IC50 [5, 15] was 1540 ± 279 nM, the fold-reversal ([5]; SW1573/2R120 cells, drug alone, no FG020326 (reference)) was “(1.0) fold” and the IC50 [1, 16] was 81 ± 10 nM. For the same compound, the fold-reversal ([1]; MCF-7 cells, drug alone) was “(1.0) fold”, the IC50 [6] was 20 ± 10 nM and the fold-reversal [6] was “(1.0) fold”.

For CC[C@@]1(O)C(=O)OCc2c1cc1n(c2=O)Cc2cc3c(CN(C)C)c(O)ccc3nc2-1 [Topotecan, topotecan], the fold-reversal ([7]; S1 cells, drug alone, no FG020326 (reference)) was “(1.0) fold”, the IC50 ([7]; read-out: IC50 ± SD) was 84 ± 24 nM and the IC50 ([8]; Homo sapiens, S1-M1-80, read-out: IC50 ± SD) was 12000 ± 1280 nM. The fold-reversal ([8]; S1-M1-80 cells, drug alone, no FG020326 (reference)) was “(1.0) fold” and the fold resistance ([8]; S1-M1-80 compared with S1 cells) was 143.2 fold.

In the case of CC(=O)O[C@H]1C(=O)[C@@]2(C)[C@H]([C@H](OC(=O)c3ccccc3)[C@]3(O)C[C@H](OC(=O)[C@H](O)[C@@H](NC(=O)c4ccccc4)c4ccccc4)C(C)=C1C3(C)C)[C@]1(OC(C)=O)CO[C@@H]1C[C@@H]2O [Paclitaxel], the IC50 [2] is reported as 340 ± 38.7 nM, the fold-reversal [2] is reported as “(1.0) fold” and the IC50 [4] is reported as 48.3 ± 4.12 nM. For the same compound, the fold-reversal [4] was “(1.0) fold”, the IC50 [1, 16] was 6.91 ± 0.903 nM and the fold-reversal ([1]; MCF-7 cells, drug alone) was “(1.0) fold”. For the same compound, the AUC(0-t) ([9]; both, NIH, mouse, plasma, iv, 18 mg/kg, with FG020326 100 mg/kg p.o.) was 69400 ± 2260 ng·h/mL, the AUC(0-t) ([9]; both, NIH, mouse, plasma, iv, 18 mg/kg, without FG020326) was 73600 ± 5580 ng·h/mL and the AUC(0-inf) ([9]; both, NIH, mouse, plasma, iv, 18 mg/kg, AUC0→ ∞, paclitaxel 18 mg/kg i.v., without FG020326) was 73700 ± 5570 ng·h/mL. It also gave a clearance ([9]; both, NIH, mouse, plasma, iv, 18 mg/kg, CL, paclitaxel 18 mg/kg i.v., without FG020326) of 0.0888 mL/min, an MRT ([9]; both, NIH, mouse, plasma, iv, 18 mg/kg, MRT, paclitaxel 18 mg/kg i.v., without FG020326) of 1.54 ± 0.02 h and a half-life ([9]; both, NIH, mouse, plasma, iv, 18 mg/kg, T1/2β, paclitaxel 18 mg/kg i.v., with FG020326 100 mg/kg p.o.) of 1.42 ± 0.08 h. It also gave a Vd ([9]; both, NIH, mouse, plasma, iv, 18 mg/kg, Vd, paclitaxel 18 mg/kg i.v., without FG020326) of 0.0124 ± 0.0011 L, a T1/2α ([9]; paclitaxel 18 mg/kg i.v., without FG020326) of 0.55 ± 0.04 h and an IC50 [6] of 1.38 ± 0.148 nM. For the same compound, the fold-reversal [6] was “(1.0) fold”, the “Growth Inhibition” value [10, 17] was 8.1% and the “Post-experiment Weight (body weight)” value [10, 17] was 24.4 ± 2.6 g. For the same compound, the Weight of tumor [10, 17] was 2.06 ± 1.06 g.

With CC[C@]1(O)C[C@H]2CN(CCc3c([nH]c4ccccc34)[C@@](C(=O)OC)(c3cc4c(cc3OC)N(C=O)[C@H]3[C@@](O)(C(=O)OC)[C@H](OC(C)=O)[C@]5(CC)C=CCN6CC[C@]43[C@@H]65)C2)C1 [Vincristine, vincristine] the IC50 [2] was 4020 ± 656 nM, the fold-reversal [2] was “(1.0) fold” and the IC50 [11, 18] was 324 ± 24 nM. For the same compound, the fold-reversal ([11]; NIH3T3 cells, drug alone, no FG020326 (reference)) was “(1.0) fold”, the IC50 [4] was 1320 ± 256 nM and the fold-reversal [4] was “(1.0) fold”. The IC50 [1, 16] was 59 ± 9 nM, the fold-reversal ([1]; MCF-7 cells, drug alone) was “(1.0) fold” and the IC50 [6] was 28 ± 9 nM. The fold-reversal [6] was “(1.0) fold”, the IC50 ([12]; Homo sapiens, KB-CV60, read-out: IC50 ± SD) was 88600 ± 8280 nM and the fold-reversal ([12]; KB-CV60 cells, drug alone, no FG020326 (reference)) was “(1.0) fold”. The IC50 [13, 18] was 7250 ± 779 nM, the fold-reversal ([13]; NIH3T3/MRP-4-2 cells, drug alone, no FG020326 (reference)) was “(1.0) fold” and the “Post-experiment Weight (body weight)” value [10, 19] was 25.6 ± 1.9 g. The Weight of tumor [10, 19] was 2.92 ± 0.94 g, the IC50 ([14]; Homo sapiens, KB 3-1, read-out: IC50 ± SD) was 7260 ± 724 nM and the fold-reversal ([14]; KB-3-1 cells, drug alone, no FG020326 (reference)) was “(1.0) fold”.
